# Data from BindingDB's records for doi:10.1016/s0960-894x(01)00758-2 (University of St. Andrews, 2002).
# Assay: Tested for binding affinity against kynureninase enzyme from bacterial cells
smiles,measurement,value
NC(CC(O)c1cccc(O)c1)C(=O)O (stereo unspecified) [2-amino-4-[3'-hydroxyphenyl]-4-hydroxybutanoic acid],Ki,10 µM
